Test results reported in ChEMBL document CHEMBL6074641, “Polypharmacological Drug Design Guided by Integrating Phenotypic and Restricted Fragment Docking Strategies” (J Med Chem, 2024).
Active and inactive are the calls of the source. The rule behind the calls is not given here.

Legend:
BV-2 [1] = test: Anti-necroptosis activity in LPS/zVAD stimulated mouse BV-2 cells preincubated with LPS for 11 hrs followed by compound addition for 1 hr and exposed to zVAD-fmk for another 24 hrs by Cellcounting-Lite 2.0 luminescent cell viability assay; conditions: time 25.0 hrs
[2] = target: T1, Receptor-interacting serine/threonine-protein kinase 1 (Homo sapiens) (UniProt Q13546); test: (§1) Inhibition of recombinant RIPK1 (1 to 327 residues) (unknown origin) expressed in Escherichia coli BL21([…]) using MBP as substrate preincubated for 15 mins followed by substrate and ATP addition and measured after 90 mins by ADP-Glo luminescence […] assay; conditions: time 105.0 min
T1 sequence (whole entry): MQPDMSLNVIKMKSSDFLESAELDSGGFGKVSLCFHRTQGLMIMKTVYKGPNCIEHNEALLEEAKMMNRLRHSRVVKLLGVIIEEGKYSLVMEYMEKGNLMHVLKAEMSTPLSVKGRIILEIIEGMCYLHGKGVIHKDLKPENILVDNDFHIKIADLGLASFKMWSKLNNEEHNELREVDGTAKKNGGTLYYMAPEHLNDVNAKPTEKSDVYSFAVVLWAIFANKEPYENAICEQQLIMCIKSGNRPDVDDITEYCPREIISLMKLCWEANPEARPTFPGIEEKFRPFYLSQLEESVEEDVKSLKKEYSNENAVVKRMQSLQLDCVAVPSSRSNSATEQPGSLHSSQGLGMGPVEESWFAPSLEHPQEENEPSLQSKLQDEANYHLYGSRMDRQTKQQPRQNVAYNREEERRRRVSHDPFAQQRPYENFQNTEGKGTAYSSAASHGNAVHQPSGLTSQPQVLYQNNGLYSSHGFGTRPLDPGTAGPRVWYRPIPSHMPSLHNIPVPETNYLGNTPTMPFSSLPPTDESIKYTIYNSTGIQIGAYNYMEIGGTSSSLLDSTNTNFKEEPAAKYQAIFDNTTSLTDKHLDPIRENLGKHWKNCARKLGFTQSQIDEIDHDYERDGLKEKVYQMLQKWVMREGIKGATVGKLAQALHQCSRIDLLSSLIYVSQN

[3] = target: T2, Receptor-interacting serine/threonine-protein kinase 1 (Homo sapiens, UniProt Q13546); test: as §1
T2 sequence (Q13546 whole entry): T1 sequence (whole entry)

[4] = target: Mitogen-activated protein kinase kinase kinase kinase 4 (Homo sapiens, UniProt O95819); test: Inhibition of recombinant MAP4K4 (1 to 328 residues) (unknown origin) expressed in Escherichia coli BL21([…]) using MBP as substrate preincubated for 15 mins followed by substrate and ATP addition and measured after 90 mins by ADP-Glo luminescence […] assay
Mitogen-activated protein kinase kinase kinase kinase 4, sequence (O95819 whole entry, the tested form may be a part): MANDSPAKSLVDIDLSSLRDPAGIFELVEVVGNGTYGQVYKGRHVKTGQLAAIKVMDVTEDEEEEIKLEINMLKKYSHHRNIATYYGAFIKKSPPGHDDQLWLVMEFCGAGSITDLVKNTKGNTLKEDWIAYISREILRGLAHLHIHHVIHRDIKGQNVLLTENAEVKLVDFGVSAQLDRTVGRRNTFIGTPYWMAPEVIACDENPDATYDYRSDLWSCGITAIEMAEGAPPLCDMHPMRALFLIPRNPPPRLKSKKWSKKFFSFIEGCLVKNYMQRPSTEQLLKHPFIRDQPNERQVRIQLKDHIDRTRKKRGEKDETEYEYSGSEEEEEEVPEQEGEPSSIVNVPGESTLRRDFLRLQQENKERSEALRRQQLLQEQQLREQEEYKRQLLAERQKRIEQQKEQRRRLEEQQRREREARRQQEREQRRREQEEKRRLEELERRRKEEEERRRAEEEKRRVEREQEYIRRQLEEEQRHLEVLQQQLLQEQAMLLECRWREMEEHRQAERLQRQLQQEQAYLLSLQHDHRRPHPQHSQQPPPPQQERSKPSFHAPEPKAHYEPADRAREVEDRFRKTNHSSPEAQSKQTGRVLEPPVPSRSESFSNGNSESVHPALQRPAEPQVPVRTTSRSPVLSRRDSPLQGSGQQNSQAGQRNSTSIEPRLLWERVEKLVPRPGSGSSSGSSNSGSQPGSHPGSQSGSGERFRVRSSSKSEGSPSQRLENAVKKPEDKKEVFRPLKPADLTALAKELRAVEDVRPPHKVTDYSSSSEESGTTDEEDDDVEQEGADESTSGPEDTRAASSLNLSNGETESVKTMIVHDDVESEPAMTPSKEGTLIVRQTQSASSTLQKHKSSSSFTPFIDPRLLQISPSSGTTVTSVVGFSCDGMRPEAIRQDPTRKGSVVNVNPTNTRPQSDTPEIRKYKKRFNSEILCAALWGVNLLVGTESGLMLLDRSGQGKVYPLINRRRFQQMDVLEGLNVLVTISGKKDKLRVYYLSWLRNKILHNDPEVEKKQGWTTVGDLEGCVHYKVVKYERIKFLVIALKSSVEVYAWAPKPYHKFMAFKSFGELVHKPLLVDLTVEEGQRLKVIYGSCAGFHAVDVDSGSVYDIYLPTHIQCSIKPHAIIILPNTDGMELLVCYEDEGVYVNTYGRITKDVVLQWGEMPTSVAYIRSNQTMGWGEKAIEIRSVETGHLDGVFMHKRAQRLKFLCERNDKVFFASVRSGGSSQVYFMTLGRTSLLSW

BV-2 [5] = test: cells; conditions: Mus musculus
[6] = target: ALK tyrosine kinase receptor (Homo sapiens, UniProt Q9UM73); test: Inhibition of recombinant ALK (1060 to end residues) (unknown origin) expressed in Escherichia coli […] using IGF1Rtide as substrate preincubated for 15 mins followed by substrate and ATP addition and measured after 90 mins by ADP-Glo luminescence […] assay
ALK tyrosine kinase receptor, sequence (Q9UM73 whole entry): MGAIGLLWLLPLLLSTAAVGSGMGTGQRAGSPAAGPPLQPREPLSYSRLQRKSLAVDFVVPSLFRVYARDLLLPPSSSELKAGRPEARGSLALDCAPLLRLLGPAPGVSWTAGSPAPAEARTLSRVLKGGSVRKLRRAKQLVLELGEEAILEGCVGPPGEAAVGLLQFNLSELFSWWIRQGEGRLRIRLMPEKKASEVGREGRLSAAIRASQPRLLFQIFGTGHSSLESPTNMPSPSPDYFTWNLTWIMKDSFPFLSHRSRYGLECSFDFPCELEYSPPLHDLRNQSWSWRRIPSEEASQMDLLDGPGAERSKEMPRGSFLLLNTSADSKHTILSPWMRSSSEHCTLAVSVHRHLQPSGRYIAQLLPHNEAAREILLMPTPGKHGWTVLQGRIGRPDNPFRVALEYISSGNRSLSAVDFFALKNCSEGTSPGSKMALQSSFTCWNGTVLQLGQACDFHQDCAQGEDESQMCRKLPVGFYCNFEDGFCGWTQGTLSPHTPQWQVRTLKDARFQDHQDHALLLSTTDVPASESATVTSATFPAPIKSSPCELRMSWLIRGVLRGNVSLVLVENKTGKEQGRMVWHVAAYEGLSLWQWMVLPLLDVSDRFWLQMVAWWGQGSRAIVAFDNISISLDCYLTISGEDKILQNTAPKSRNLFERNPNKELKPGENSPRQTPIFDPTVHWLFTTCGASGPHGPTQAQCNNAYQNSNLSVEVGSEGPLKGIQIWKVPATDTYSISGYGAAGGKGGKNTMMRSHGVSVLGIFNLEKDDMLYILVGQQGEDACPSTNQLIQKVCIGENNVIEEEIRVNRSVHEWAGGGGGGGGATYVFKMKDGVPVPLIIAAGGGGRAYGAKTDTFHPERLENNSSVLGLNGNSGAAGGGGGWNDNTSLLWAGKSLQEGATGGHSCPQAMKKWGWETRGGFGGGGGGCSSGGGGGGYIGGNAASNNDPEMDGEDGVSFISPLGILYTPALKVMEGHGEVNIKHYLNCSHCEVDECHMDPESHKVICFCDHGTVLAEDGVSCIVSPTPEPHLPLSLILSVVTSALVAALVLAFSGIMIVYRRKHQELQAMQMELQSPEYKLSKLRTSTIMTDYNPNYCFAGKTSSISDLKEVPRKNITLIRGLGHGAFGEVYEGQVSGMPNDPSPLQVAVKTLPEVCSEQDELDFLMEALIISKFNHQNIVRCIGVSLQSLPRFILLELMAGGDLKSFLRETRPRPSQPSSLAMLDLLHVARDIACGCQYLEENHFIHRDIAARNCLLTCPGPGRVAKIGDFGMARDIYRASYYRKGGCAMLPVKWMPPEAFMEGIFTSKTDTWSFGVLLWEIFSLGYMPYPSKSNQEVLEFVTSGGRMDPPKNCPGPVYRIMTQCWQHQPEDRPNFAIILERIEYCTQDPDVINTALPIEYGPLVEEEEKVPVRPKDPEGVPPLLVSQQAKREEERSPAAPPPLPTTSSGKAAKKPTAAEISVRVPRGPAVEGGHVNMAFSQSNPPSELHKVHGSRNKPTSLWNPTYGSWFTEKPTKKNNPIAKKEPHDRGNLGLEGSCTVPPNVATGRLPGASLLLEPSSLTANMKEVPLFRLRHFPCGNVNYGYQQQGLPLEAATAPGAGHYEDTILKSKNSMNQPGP

BV-2 [7] = test: Cytotoxicity against mouse BV-2 cells; type: toxicity, cell-based
BV-2 [8] = test: Anti-necroptosis activity in LPS/zVAD stimulated mouse BV-2 cells at 10 uM preincubated with LPS for 11 hrs followed by compound addition for 1 hr and exposed to zVAD-fmk for another 24 hrs by Cellcounting-Lite 2.0 luminescent cell viability assay; type: functional, cell-based; conditions: time 25.0 hrs
BV-2 [9] = test: Synergistic anti-necroptosis activity in LPS/zVAD stimulated mouse BV-2 cells preincubated with LPS for 11 hrs followed by compound addition for 1 hr and exposed to zVAD-fmk for another 24 hrs in presence of Nec-1 by Cellcounting-Lite 2.0 luminescent cell viability assay; type: functional, cell-based; conditions: time 25.0 hrs
BV-2 [10] = test: Synergistic anti-necroptosis activity in LPS/zVAD stimulated mouse BV-2 cells preincubated with LPS for 11 hrs followed by compound addition for 1 hr and exposed to zVAD-fmk for another 24 hrs in presence of crizotinib by Cellcounting-Lite 2.0 luminescent cell viability assay; type: functional, cell-based; conditions: time 25.0 hrs
BV-2 [11] = test: (§2) Synergistic anti-necroptosis activity in LPS/zVAD stimulated mouse BV-2 cells at 100 nM preincubated with LPS for 11 hrs followed by compound addition for 1 hr and exposed to zVAD-fmk for another 24 hrs in presence of PF-06260933 and TAE684 by Cellcounting-Lite 2.0 luminescent cell viability assay; type: functional, cell-based; conditions: time 25.0 hrs
BV-2 [12] = test: Downregulation of p-RIPK1 expression in mouse BV-2 cells at 100 nM in presence of PF-06260933 and crizotinib by Western blotting analysis; type: functional, cell-based
BV-2 [13] = test: Anti-necroptosis activity in LPS/zVAD stimulated mouse BV-2 cells assessed as inhibition of p65 nuclear translocation at 100 nM; type: functional, cell-based
BV-2 [14] = test: Synergistic anti-necroptosis activity in LPS/zVAD stimulated mouse BV-2 cells at 100 nM preincubated with LPS for 11 hrs followed by compound addition for 1 hr and exposed to zVAD-fmk for another 24 hrs in presence of PF-06260933 and LDK378 by Cellcounting-Lite 2.0 luminescent cell viability assay; type: functional, cell-based; conditions: time 25.0 hrs
BV-2 [15] = test: Anti-inflammatory activity against LPS/zVAD treated mouse BV-2 cells assessed as decrease in IL-1beta release at 100 nM in presence of PF-06260933 and crizotinib by ELISA; type: functional, cell-based
BV-2 [16] = test: Anti-necroptosis activity in LPS/zVAD stimulated mouse BV-2 cells assessed as inhibition of p65 nuclear translocation at 100 nM in presence of PF-06260933 and crizotinib; type: functional; parameters: scale not given: the % may be the effect or the level left
BV-2 [17] = test: Anti-necroptosis activity in LPS/zVAD stimulated mouse BV-2 cells assessed as inhibition of extranuclear p65 at 100 nM; type: functional, cell-based
BV-2 [18] = test: Anti-inflammatory activity against LPS/zVAD treated mouse BV-2 cells assessed as decrease in TNFalpha release at 100 nM in presence of PF-06260933 and crizotinib by ELISA; type: functional, cell-based
BV-2 [19] = test: Downregulation of p-MLKL expression in mouse BV-2 cells at 100 nM in presence of PF-06260933 and crizotinib by Western blotting analysis; type: functional, cell-based
BV-2 [20] = test: as §2, with “crizotinib” for “TAE684”; type: functional, cell-based; conditions: time 25.0 hrs
Mus musculus [21] = test: Anti-alzheimer activity against 5 month old APP/PS1 transgenic mouse model assessed as decrease in anxiety level at 10 mg/kg, po administered 4 times per week for 4 weeks; type: functional, organism-based
BV-2 [22] = test: as §2, with “entrectinib” for “TAE684”; type: functional, cell-based; conditions: time 25.0 hrs
Mus musculus [23] = test: Anti-alzheimer activity against 5 month old APP/PS1 transgenic mouse model assessed as decrease in restlessness at 10 mg/kg, po administered 4 times per week for 4 weeks; type: functional, organism-based
Mus musculus [24] = test: Anti-alzheimer activity against 8 month old 3xTg mouse model assessed as decrease in restlessness at 10 mg/kg, po administered 4 times per week for 4 weeks; type: functional, organism-based
BV-2 [25] = test: Anti-necroptosis activity in LPS/zVAD stimulated mouse BV-2 cells assessed as inhibition of p65 activation at 100 nM in presence of PF-06260933 and crizotinib; type: functional; parameters: scale not given: the % may be the effect or the level left
Mus musculus [26] = test: Anti-alzheimer activity against 8 month old 3xTg mouse model assessed as decrease in anxiety level at 10 mg/kg, po administered 4 times per week for 4 weeks; type: functional, organism-based

Structure (SMILES)	IC50 [3] [nM]	IC50 [4] [nM]	EC50 (BV-2 [5]) [nM]	IC50 [6] [nM]	further results
Nc1cc(-c2ccc(Br)cc2)nn1Cc1ccccc1					Activity (BV-2 [1]): Active; Inhibition activity call [2]: Active
Cc1cc(F)cc(Nc2ncc(Nc3ccc(-c4ccco4)cc3)cc2C(N)=O)c1	360	650	120	1450	
Cc1cc(F)cc(Nc2ncc(Nc3ccccc3)cc2C(N)=O)c1	380	760	370	1270	
CN(C(=O)c1cccn(Cc2cccc(F)c2)c1=O)c1ccccc1					Activity (BV-2 [1]): Active; Inhibition activity call [2]: Active
Cc1cc(F)cc(Nc2ncc(Nc3ccccc3C)cc2C(N)=O)c1		970	> 3000		
COc1ccc(Nc2cnc(Nc3cc(C)cc(F)c3)c(C(N)=O)c2)c(F)c1	960	3160	1540	1460	
Cc1cc(F)cc(Nc2ncc(Nc3ccc(C)c(C)c3)cc2C(N)=O)c1	1570	1380	> 3000	1050	
Cc1cc(Nc2ncc(Cl)c(Nc3ccccc3S(=O)(=O)C(C)C)n2)c(OC(C)C)cc1C1CCNCC1 [CERITINIB]					Activity (BV-2 [1]): inactive; Activity (BV-2 [7]): Toxic
Nc1ccc(-c2cnc(N)c(-c3ccc(Cl)cc3)c2)cn1					Activity (BV-2 [8]): Active; Activity Similar To Nec-1; Activity (BV-2 [9]): inactive; Activity (BV-2 [10]): inactive
CN1C(=O)C(Cc2c[nH]c3ccccc23)NC1=S (stereo unspecified) [NECROSTATIN]					Activity (BV-2 [11]): Active; Activity (BV-2 [12]): Active; Activity (BV-2 [13]): Active; Activity (BV-2 [14]): Active; Activity (BV-2 [15]): Active; Activity (BV-2 [16]): 100%; Activity (BV-2 [17]): inactive; Activity (BV-2 [18]): Active; Activity (BV-2 [19]): Active; Activity (BV-2 [20]): Active; Activity (Mus musculus [21]): Active; Activity (BV-2 [10]): inactive; Activity (BV-2 [22]): Active; Activity (Mus musculus [23]): Active; Activity (Mus musculus [24]): Active; Activity (BV-2 [25]): 100%; Activity (Mus musculus [26]): Active
Cc1cc(F)cc(Nc2ncc(Nc3ccc(Oc4ccccc4)cc3)cc2C(N)=O)c1	870	4290	2660	3790	
COc1ccc(Nc2cnc(Nc3cc(C)cc(F)c3)c(C(N)=O)c2)cc1	300	1810	140	1550	
Cc1cc(F)cc(Nc2ncc(Nc3ccc(C(C)(C)C)cc3)cc2C(N)=O)c1	500		440	830	
Cc1cc(C)cc(Nc2cnc(Nc3cc(C)cc(F)c3)c(C(N)=O)c2)c1	430	930		210	
Cc1cc(F)cc(Nc2ncc(Nc3cccc(C#N)c3)cc2C(N)=O)c1	1210	530	> 3000	2240	
Cc1cc(F)cc(Nc2ncc(Nc3ccc(C(F)(F)F)cc3)cc2C(N)=O)c1	420	1420	210	3780	
C[C@@H](Oc1cc(-c2cnn(C3CCNCC3)c2)cnc1N)c1c(Cl)ccc(F)c1Cl [CRIZOTINIB]					Activity (BV-2 [7]): Non-toxic
Cc1cc(F)cc(Nc2ncc(Nc3ccc(F)cc3F)cc2C(N)=O)c1	290	1920	150	780	
Cc1cc(F)cc(Nc2ncc(Nc3ccc(C#N)cc3)cc2C(N)=O)c1	350	440	240	3020	
O=C(NCCc1ccccc1)C1CCN(C(=O)c2ccccc2F)CC1					Activity (BV-2 [1]): Active; Inhibition activity call [2]: Active
O=C1c2cccc3cccc(c23)N1Cc1ccc(F)cc1					Activity (BV-2 [1]): Active; Inhibition activity call [2]: Active
COc1ccc(Nc2cnc(Nc3cc(C)cc(F)c3)c(C(N)=O)c2)c(C)c1		9260	> 3000		
Cc1cc(F)cc(Nc2ncc(Nc3ccc4c(c3)OCO4)cc2C(N)=O)c1	660	2230	160		
Cc1cc(C)c(C(N)=O)c(Nc2ccc(Cl)cc2)n1					Activity (BV-2 [1]): Active; Inhibition activity call [2]: Active
C=Cc1ccc(Nc2cnc(Nc3cc(C)cc(F)c3)c(C(N)=O)c2)cc1	480	350	140		
CCCc1ccc(Nc2cnc(Nc3cc(C)cc(F)c3)c(C(N)=O)c2)cc1	1480	12900	> 3000	3310	
Cc1c(Cc2ccccc2)sc(NC(=O)c2ccccc2)c1C(N)=O					Activity (BV-2 [1]): Active; Inhibition activity call [2]: Active
Cc1cc(F)cc(Nc2ncccc2C(N)=O)c1	240	660	480	610	
Cc1cc(F)cc(Nc2ncc(Nc3ccc4c(c3)CCCC4)cc2C(N)=O)c1	690	2260	200		
Cc1cc(F)cc(Nc2ncc(Nc3ccccc3Cl)cc2C(N)=O)c1	1300	760	> 3000	490	
